pIC50: −log10 of the molar value.

One experiment addresses T1, Cytochrome P450 2B6 (Homo sapiens, UniProt P20813).
T1 sequence (P20813 whole entry): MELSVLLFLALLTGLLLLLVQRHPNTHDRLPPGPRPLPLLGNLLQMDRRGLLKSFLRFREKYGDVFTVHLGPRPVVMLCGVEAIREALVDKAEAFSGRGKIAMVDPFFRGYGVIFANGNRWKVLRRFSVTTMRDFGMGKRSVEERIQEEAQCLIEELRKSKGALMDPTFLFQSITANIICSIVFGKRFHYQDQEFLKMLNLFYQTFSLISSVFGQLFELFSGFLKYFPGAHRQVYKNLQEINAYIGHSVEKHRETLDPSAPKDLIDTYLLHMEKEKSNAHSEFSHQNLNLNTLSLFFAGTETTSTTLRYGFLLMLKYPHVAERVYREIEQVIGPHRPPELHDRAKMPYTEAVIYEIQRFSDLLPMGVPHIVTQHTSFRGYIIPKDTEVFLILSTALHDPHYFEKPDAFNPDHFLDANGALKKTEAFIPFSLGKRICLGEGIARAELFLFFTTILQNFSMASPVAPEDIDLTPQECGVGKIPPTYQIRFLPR
In words: Inhibition of human CYP2B6 expressed in Sacchrosomes by fluorescence based assay. It is filed as ADME.

A further experiment addresses T2, Cytochrome P450 1A2 (Homo sapiens, UniProt P05177).
T2 sequence (P05177 whole entry): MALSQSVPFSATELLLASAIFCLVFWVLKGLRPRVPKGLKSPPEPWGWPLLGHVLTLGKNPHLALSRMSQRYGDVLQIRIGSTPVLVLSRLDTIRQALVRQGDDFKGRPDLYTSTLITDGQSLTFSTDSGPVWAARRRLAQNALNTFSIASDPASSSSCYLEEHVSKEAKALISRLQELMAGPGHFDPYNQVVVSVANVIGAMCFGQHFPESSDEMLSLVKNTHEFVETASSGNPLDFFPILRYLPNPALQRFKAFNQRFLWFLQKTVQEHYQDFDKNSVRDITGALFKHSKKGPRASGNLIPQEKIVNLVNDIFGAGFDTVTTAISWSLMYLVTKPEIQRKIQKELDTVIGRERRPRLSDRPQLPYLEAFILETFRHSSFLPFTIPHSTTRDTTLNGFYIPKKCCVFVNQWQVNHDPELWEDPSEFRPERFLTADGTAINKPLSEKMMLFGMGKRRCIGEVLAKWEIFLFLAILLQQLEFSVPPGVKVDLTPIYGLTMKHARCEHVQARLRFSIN
In words: Inhibition of human CYP1A2 expressed in Sacchrosomes using 3-cyano-7-ethoxycoumarin as substrate by fluorescence based assay. It is filed as ADME.

The species entered for experiment [1] is Homo sapiens. Description: Selectivity ratio IC50 for inhibition of human CYP1A2 expressed in sacchrosomes toIC50 for Inhibition of CYP1A1 expressed in sacchrosomes.
The species named for experiment [2] is Homo sapiens. In words: Selectivity ratio IC50 for inhibition of human CYP1B1 expressed in sacchrosomes toIC50 for Inhibition of CYP1A1 expressed in sacchrosomes.

As to `O=c1cc(-c2ccccc2)oc2c1ccc1occc12` [LANCEOLATIN B], the pIC50 was less than 4.70 against Cytochrome P450 2B6 and 6.73 against Cytochrome P450 1A2.

For `COc1c(-c2ccc3c(c2)OCO3)oc2c(ccc3occc32)c1=O` [PONGAPIN], the Ratio IC50 in the experiment filed under Homo sapiens [1] came out at 13; in the experiment listed under Homo sapiens [2], 52. The pIC50 is less than 4.70 at Cytochrome P450 2B6 and 5.60 on Cytochrome P450 1A2.

For orientation: pIC50 means the IC50 on a negative log10 scale, so that one unit is a factor of ten. High values mean a low IC50, low ones a high IC50.

The record behind these values is ChEMBL document CHEMBL4673221, “Furanoflavones pongapin and lanceolatin B blocks the cell cycle and induce senescence in CYP1A1-overexpressing breast cancer cells” (Bioorg Med Chem, 2018).
